Assay [1] deals with N-mSMase ε. Briefly: N-mSMase activity assay: hydrolysis of [N-methyl-14C]sphingomyelin with added cations, reducing agents or surfactants. The assay is classed as biochemical, bovine. The note with it: for influence of reducing agents on N-mSMase ε activity: 0.5-10 mM; for influence of glutathione-like agents on N-mSMase ε activity: 1, 3, 5 or 10 mM. As for the experimental part:
(§1) After being dried with a nitrogen stream, [N-methyl-^14C]sphingomyelin (choline residue labeled with ^14C) was suspended in ethanol. 10 μl of a sample was mixed with 100 μl of a reaction solution (10 mM MgSO4, 50 μM [N-methyl-^14C]sphingomyelin (c.a. 60,000 cpm), 2 mM sodium deoxycholate, 100 mM Tris-HCl (pH 7.0)) and incubated at 37° C. for 30 min. Addition of 320 μl of a mixture of chloroform/methanol (1:1 volume ratio) and 30 μl of 2N hydrochloride stopped the reaction. After vortexing and centrifuging the resulting mixture at 10,000× g, 200 μl of the aqueous layer was mixed with 2.5 ml of a scintillation cocktail, such as that manufactured by Packard Instrument Co., U.S.A., identified as “Insta gel-XF”, followed by measuring the radioactivity with the aid of a Packard Tri-carb liquid β-scintillation counter.
In order to examine the dependency of N-mSMase ε activity on Mg^2+, Fraction B obtained in Step 6 of Example 1 was desalted by being applied to a PD-10 column (Sephadex G-25, Pharmacia Biotechnology Co., Sweden) For use, the column was equilibrated twice with distilled water, in advance. The desalted protein fraction (corresponding to protein 10 ng) was measured for N-mSMase ε activity in the presence of […] of MgCl2 in the manner described in Experimental Example 1.
An examination was made of the influence of other cations, such as Ca^2+, Fe^3+, Fe^2+, Zn^2+, Cu^2+ and […] on the activity of N-mSMase ε. To a solution containing the desalted protein fraction (corresponding to protein 10 ng) obtained in C and 5 mM MgCl2, CaCl2, FeCl3, FeCl2, ZnCl2 or CuCl2 was added to yield a final concentration of 0.01, 0.02, 0.05, 0.1, 0.25 or 0.5 mM, followed by the measurement of N-mSMase ε activity in accordance with the procedure of Experimental Example 1.
After the addition of 10 μl of [N-methyl-^14C]sphingomyelin, the N-mSMase activity was measured according to the procedure of Experimental Example 1. For comparison, a Tris-HCl buffer containing no reducing agents was used as a control. The N-mSMase ε activity influenced by the reducing agents was expressed as a percentage relative to the control.
After being treated with 1, 3, 5 or 10 mM of GSSG, cystein, cystein-glycine or γ-glutaric acid-cystein, the activity of N-mSMase ε was measured in the same manner.
Sodium deoxycholate and Triton X-100 were selected as surfactant5 to be tested. The protein fraction obtained in C (corresponding to 10 ng of protein) was measured for N-mSMase ε activity in reaction solutions containing 0.5, 1, 2 and 5 mM of sodium deoxycholate, respectively, in accordance with the procedure of Experimental Example 1. In the case of Triton X-100, it was prepared at concentrations of 0.05, 0.01, 0.5 and 0.1%.

The test system of assay [2] is partially purified N-mSMase from rat brain. The note with it: Liu et al., J. Biol. Chem. 273, 34472-34479; cited from earlier work.
A short description of assay [3]: Kinetic analysis (Lineweaver-Burk), substrate specificity and optimum pH of the purified enzyme. Format: biochemical, bovine. The note with it: 0.4, 1.0 and 2.0 mM sodium deoxycholate. As for the experimental part:
as §1
The N-mSMase ε prepared in Step 6 of Example 1 was subjected to Lineweaver-Burk analysis. In this regard, enzyme N-mSMase ε was used at amounts of 10 ng or less with the substrate sphingomyelin varying, in concentration, from 6.25 to 100 μM.
Separately, the same Lineweaver-Burk analysis was carried out, but in the presence of 0.4, 1.0 and 2.0 mM sodium deoxycholate. […]

Setting [4] is: desalted protein fraction (10 ng), 5 mM MgCl2, chloride salts 0.01-0.5 mM, read-out: IC50, inhibition of enzyme activity (hydrolysis of sphingomyelin) by cations.

Entries after “also recorded” stand apart in the source; their conditions may differ. Like-named read-outs stand apart in the source and are kept apart here.

As for `[Cl-].[Cl-].[Mg+2]` [Mg^2+, MgCl2], the “dependency of N-mSMase ε activity on Mg2+” value in assay [1] (1, 5, 10 and 25 mM MgCl2, desalted fraction B) is “Mg^2+-concentration dependent”. Consider `OCCS` [2-mercaptoethanol], for which the “influence of reducing agents on N-mSMase ε activity” value in assay [1] (preincubation 37° C. 10 min) is “not inhibited; also recorded: neither dithiothreitol nor 2-mercaptoethanol has any influence”. `N[C@@H](CCC(=O)N[C@@H](CS)C(=O)O)C(=O)O` [γ-glutaric acid-cystein]: in assay [1], the “influence of glutathione-like agents on N-mSMase ε activity” value (“influence of glutathione-like agents” for short) is listed as “inhibited; also recorded: reduction in the activity”. As for `O[C@H](CS)[C@H](O)CS` (racemic) [DTT, dithiothreitol], the “influence of reducing agents on N-mSMase ε activity” value in assay [1] (preincubation 37° C. 10 min) was “not inhibited”; in assay [1] (preincubation 37° C. 10 min, listed as dithiothreitol) it was “neither dithiothreitol nor 2-mercaptoethanol has any influence”. Also, in assay [2], the “effect on the activity of partially purified rat brain N-mSMase” value was “promoted”. Regarding `N[C@@H](CS)C(=O)O` [cystein], the “influence of glutathione-like agents” value in assay [1] is “inhibited; also recorded: reduction in the activity”.

Consider `N[C@@H](CCC(=O)N[C@@H](CS)C(=O)NCC(=O)O)C(=O)O` [glutathione], for which, in assay [1] (glutathione 10 mM), the “activity of N-mSMase ε at 10 mM glutathione” value is recorded as “fully inhibited; also recorded: completely inhibited”. Further, the “activity of N-mSMase ε with increasing glutathione concentration up to 3 mM” value in assay [1] (glutathione up to 3 mM) is “increases”. Moreover, in assay [1] (read-out: IC50, inhibition of sphingomyelinase activity by glutathione, glutathione above 3 mM, preincubation 37° C. 10 min, Tris-HCl pH 7.5), the IC50 (in general, the concentration needed to halve the response being measured) turned out to be 8000 µM.

Turning to `[Ca+2].[Cl-].[Cl-]` [Ca^2+, CaCl2], in assay [1] (concentration of 0.5 mM or less, 5 mM MgCl2), the “influence on the activity of N-mSMase ε” value is “no influence”.

For `[Cl-].[Cl-].[Zn+2]` [Zn^2+, ZnCl2], the IC50 in assay [1] (setting [4]) amounted to 32 µM. Regarding oxidized glutathione [GSSG], the “influence of glutathione-like agents” value in assay [1] is “inhibited; also recorded: reduction in the activity”. As to phosphatidylserine, in assay [2], the “effect on the activity of partially purified rat brain N-mSMase” value was “promoted”. Turning to `[Cl][Cu][Cl]` [Cu^2+, CuCl2], the IC50 in assay [1] (setting [4]) stood at 28 µM. As to sodium deoxycholate, the “effect on the Km value of N-mSMase ε” value in assay [3] is recorded as “could not change”.

The record behind these values is patent US20020137173A1, “Membrane-associated sphingomyelinase derived from bovine brain, isolation method therefor and anti-sphingomyelinase monoclonal anitibody” (priority 2001, published 2002).
